# In PMC8815882, “Screening the pandemic response box identified benzimidazole carbamates, Olorofim and ravuconazole as promising drug candidates for the treatment of eumycetoma” (PLoS Neglected Tropical Diseases, 2022):
# Where two headings read alike, the source gives them in different places.
# Tested on: M. mycetomatis genome strain MM55
# Assay: CLSI M38-A2 based in vitro susceptibility screening (XTT or resazurin), growth at fixed concentration
# Format: cell-based, Madurella mycetomatis
# Conditions: Madurella mycetomatis; for Percent fungal survival at 100 µM: read-out: Percentage survival at 100um, 100 uM A (second replicate column)
# [1] = mean of three replicates, read-out: Percentage survival at 25um, 25 uM mean
# [2] = replicate A, read-out: Percentage survival at 25um, 25 um A
# [3] = replicate B, read-out: Percentage survival at 25um, 25 uM B
# [4] = replicate C, read-out: Percentage survival at 25um, 25 uM C
# [5] = first replicate column, read-out: Percentage survival at 100um, 100 uM A
# [6] = mean of three replicates, read-out: Percentage survival at 100um, 100 uM mean
# [7] = second replicate column, read-out: Percentage survival at 100um, 100 uM A
# [8] = third replicate column, read-out: Percentage survival at 100um, 100 uM A
# [9] = mean, read-out: Percentage survival at 25um, 25 uM mean
# [10] = mean, read-out: Percentage survival at 100um, 100 uM mean
# [11] = replicate (first column), read-out: Percentage survival at 100um, 100 uM A
# [12] = replicate (second column), read-out: Percentage survival at 100um, 100 uM A
# [13] = replicate (third column), read-out: Percentage survival at 100um, 100 uM A
# [14] = mean of replicates, MM55, read-out: Percentage survival at 25um, 25 uM mean
# [15] = replicate A, MM55, read-out: Percentage survival at 25um, 25 um A
# [16] = replicate B, MM55, read-out: Percentage survival at 25um, 25 uM B
# [17] = replicate C, MM55, read-out: Percentage survival at 25um, 25 uM C
# [18] = mean of replicates, MM55, read-out: Percentage survival at 100um, 100 uM mean
# [19] = replicate 1, MM55, read-out: Percentage survival at 100um, 100 uM A
# [20] = replicate 2, MM55, read-out: Percentage survival at 100um, 100 uM A
# [21] = replicate 3, MM55, read-out: Percentage survival at 100um, 100 uM A
# [22] = replicate 1, read-out: Percentage survival at 100um, 100 uM A (first replicate column)
# [23] = replicate 3, read-out: Percentage survival at 100um, 100 uM A (third replicate column)
# [24] = mean of replicates, read-out: Percentage survival at 25um, 25 uM mean
# [25] = mean of replicates, read-out: Percentage survival at 100um, 100 uM mean
# [26] = replicate 1, read-out: Percentage survival at 100um, 100 uM A
# [27] = replicate 2, read-out: Percentage survival at 100um, 100 uM A
# [28] = replicate 3, read-out: Percentage survival at 100um, 100 uM A
structure (smiles),measurement,setting,value
COC1CC2CCC(C)C(O)(O2)C(=O)C(=O)N2CCCCC2C(=O)OC(C(C)CC2CCC(OCCO)C(OC)C2)CC(=O)C(C)/C=C(\C)C(O)C(OC)C(=O)C(C)CC(C)/C=C/C=C/C=C/1C (stereo not shown) [MMV639951],activity at 25 µM,[1],61.4%
same,activity at 25 µM,[2],64.2%
same,activity at 25 µM,[3],62.2%
same,activity at 25 µM,[4],57.7%
same,activity at 100 µM,[5],69.2%
same,activity at 100 µM,[6],51.7%
same,activity at 100 µM,[7],46.7%
same,activity at 100 µM,[8],39.4%
C=C(C)n1c(=O)n(Cc2ccccc2C)c2ccccc21 [MMV1579354],activity at 25 µM,"mean of three, M. mycetomatis MM55, read-out: Percentage survival at 25um, 25 uM mean",79.6%
same,activity at 25 µM,"replicate A, M. mycetomatis MM55, read-out: Percentage survival at 25um, 25 um A",93.1%
same,activity at 25 µM,"replicate B, M. mycetomatis MM55, read-out: Percentage survival at 25um, 25 uM B",79.3%
same,activity at 25 µM,"replicate C, M. mycetomatis MM55, read-out: Percentage survival at 25um, 25 uM C",66.5%
same,activity at 100 µM,"mean of three, M. mycetomatis MM55, read-out: Percentage survival at 100um, 100 uM mean",9.54%
same,activity at 100 µM,"replicate 1, M. mycetomatis MM55, read-out: Percentage survival at 100um, 100 uM A (first replicate column)",2.4%
same,Percent fungal survival at 100 µM,"replicate 2, M. mycetomatis MM55",21.4%
same,activity at 100 µM,"replicate 3, M. mycetomatis MM55, read-out: Percentage survival at 100um, 100 uM A (third replicate column)",4.84%
CCCCSc1nc(N)c2[nH]c(=O)c(=O)n(Cc3ccccc3)c2n1 [MMV1579783],activity at 25 µM,[9],74.7%
same,activity at 25 µM,[2],95.5%
same,activity at 25 µM,[3],58.6%
same,activity at 25 µM,[4],70%
same,activity at 100 µM,[10],54.9%
same,activity at 100 µM,[11],84%
same,activity at 100 µM,[12],5.11%
same,activity at 100 µM,[13],75.6%
O=C(O)c1ccccc1Sc1ncnc2sc3c(c12)CCC3 [MMV1579878],activity at 25 µM,[9],83.5%
same,activity at 25 µM,[2],89.3%
same,activity at 25 µM,[3],87%
same,activity at 25 µM,[4],74.1%
same,activity at 100 µM,[10],57%
same,activity at 100 µM,[11],1.56%
same,activity at 100 µM,[12],73.3%
same,activity at 100 µM,[13],96.2%
C[C@H]1[C@@H](c2cccc(C(F)(F)F)c2)OC(=O)N1C(=O)NCc1cncc2ccccc12 [MMV1593533],activity at 25 µM,[9],50%
same,activity at 25 µM,[2],54.1%
same,activity at 25 µM,[3],42.5%
same,activity at 25 µM,[4],53.3%
same,activity at 100 µM,[10],36.1%
same,activity at 100 µM,[11],6.17%
same,activity at 100 µM,[12],44.6%
same,activity at 100 µM,[13],57.6%
CC[C@H](NC(=O)[C@H](C)NC)C(=O)N1C[C@@H](O)C[C@H]1Cc1c(-c2[nH]c3cc(F)ccc3c2C[C@@H]2C[C@H](O)CN2C(=O)[C@H](CC)NC(=O)[C@H](C)NC)[nH]c2cc(F)ccc12 [MMV1557856],activity at 25 µM,[14],83.4%
same,activity at 25 µM,[15],88.1%
same,activity at 25 µM,[16],92.5%
same,activity at 25 µM,[17],69.7%
same,activity at 100 µM,[18],68.8%
same,activity at 100 µM,[19],72.6%
same,activity at 100 µM,[20],66.6%
same,activity at 100 µM,[21],67.1%
O=C(c1ccc(F)cc1)N1CCN2C(=O)c3ccccc3C12c1ccccc1 (stereo not shown) [MMV1165877],activity at 25 µM,[1],89.2%
same,activity at 25 µM,[2],90%
same,activity at 25 µM,[3],95.6%
same,activity at 25 µM,[4],82.1%
same,activity at 100 µM,[6],76.1%
same,activity at 100 µM,[22],85.4%
same,Percent fungal survival at 100 µM,replicate 2,71.7%
same,activity at 100 µM,[23],71.2%
O=C(Cc1ccccc1F)Nc1nc2ccccc2[nH]1 [MMV1578576],activity at 25 µM,[24],70.6%
same,activity at 25 µM,[2],73.4%
same,activity at 25 µM,[3],74.5%
same,activity at 25 µM,[4],63.8%
same,activity at 100 µM,[25],78.7%
same,activity at 100 µM,[26],102%
same,activity at 100 µM,[27],65.1%
same,activity at 100 µM,[28],69.2%
O=[N+]([O-])c1cn(Cc2nc(O)nc(O)c2Br)cn1 [MMV1579777],activity at 25 µM,[24],94.1%
same,activity at 25 µM,[2],98.9%
same,activity at 25 µM,[3],96.8%
same,activity at 25 µM,[4],86.6%
same,activity at 100 µM,[25],87.1%
same,activity at 100 µM,[26],96.7%
same,activity at 100 µM,[27],83.9%
same,activity at 100 µM,[28],80.7%
CC(=N)N1CC[C@H](SC2=C(C(=O)O)N3C(=O)[C@@H]([C@@H](C)O)[C@H]3C2)C1 [MMV1582382],activity at 25 µM,[24],78.4%
same,activity at 25 µM,[2],77.3%
same,activity at 25 µM,[3],85.2%
same,activity at 25 µM,[4],72.8%
same,activity at 100 µM,[25],83.2%
same,activity at 100 µM,[26],76.4%
same,activity at 100 µM,[27],82.9%
same,activity at 100 µM,[28],90.3%
COc1cc(Cc2cnc(N)nc2N)c2c(c1OC)OC(C1CC1)C=C2 (stereo not shown) [MMV1613563],activity at 25 µM,[24],99.9%
same,activity at 25 µM,[2],106%
same,activity at 25 µM,[3],107%
same,activity at 25 µM,[4],86.9%
same,activity at 100 µM,[25],91.5%
same,activity at 100 µM,[22],93.6%
same,Percent fungal survival at 100 µM,replicate 2,93.2%
same,activity at 100 µM,[23],87.7%
Cc1[nH]c2ccccc2c1CCNCc1ccc(/C=C/C(=O)NO)cc1 [MMV010036],activity at 25 µM,[1],90.9%
same,activity at 25 µM,[2],98.2%
same,activity at 25 µM,[3],95.9%
same,activity at 25 µM,[4],78.7%
same,activity at 100 µM,[5],85.9%
same,activity at 100 µM,[6],77.1%
same,activity at 100 µM,[7],69.6%
same,activity at 100 µM,[8],75.6%
C[C@H](Cn1cnc2c(N)ncnc21)OCP(=O)(O)O [MMV1580478],activity at 25 µM,[1],99.2%
same,activity at 25 µM,[2],98.1%
same,activity at 25 µM,[3],110%
same,activity at 25 µM,[4],89.5%
same,activity at 100 µM,[5],94.5%
same,activity at 100 µM,[6],89%
same,activity at 100 µM,[7],87.6%
same,activity at 100 µM,[8],84.8%
CN(C/C=C/C#CC(C)(C)C)Cc1cccc2ccccc12 [MMV1634359],activity at 25 µM,[9],97.3%
same,activity at 25 µM,[2],132%
same,activity at 25 µM,[3],99.8%
same,activity at 25 µM,[4],60.4%
same,activity at 100 µM,[10],81.5%
same,activity at 100 µM,[11],86.8%
same,activity at 100 µM,[12],58.9%
same,activity at 100 µM,[13],98.8%
O=c1nc(N2CCN(CC3CCCCC3)CC2)sc2c([N+](=O)[O-])cc(C(F)(F)F)cc12 [MMV1578885],activity at 25 µM,[1],90.5%
same,activity at 25 µM,[2],84.1%
same,activity at 25 µM,[3],98%
same,activity at 25 µM,[4],89.5%
same,activity at 100 µM,[6],82.7%
same,activity at 100 µM,[22],87.8%
same,Percent fungal survival at 100 µM,replicate 2,75.6%
same,activity at 100 µM,[23],84.8%
O=C(Nc1cccc(C2=NCCN2)c1)c1ccc(-c2ccc(C(=O)Nc3cccc(C4=NCCN4)c3)cc2)cc1 [MMV1580853],activity at 25 µM,[9],84.5%
same,activity at 25 µM,[2],92.1%
same,activity at 25 µM,[3],94.2%
same,activity at 25 µM,[4],67.1%
same,activity at 100 µM,[10],55.8%
same,activity at 100 µM,[11],6.17%
same,activity at 100 µM,[12],92%
same,activity at 100 µM,[13],69.2%
CNC(=O)C1O[C@@H](n2cnc3c(NCc4cccc(I)c4)nc(Cl)nc32)[C@H](O)[C@@H]1O (stereo partly shown) [MMV1593514],activity at 25 µM,[14],94.9%
same,activity at 25 µM,[15],85.8%
same,activity at 25 µM,[16],83.7%
same,activity at 25 µM,[17],115%
same,activity at 100 µM,[18],80.9%
same,activity at 100 µM,[19],74.5%
same,activity at 100 µM,[20],99.3%
same,activity at 100 µM,[21],68.9%
Nc1nc(-c2ccccc2)nc2[nH]nc(Nc3ccc(C(F)(F)F)cc3)c12 [MMV1633968],activity at 25 µM,[14],111%
same,activity at 25 µM,[15],147%
same,activity at 25 µM,[16],105%
same,activity at 25 µM,[17],80.3%
same,activity at 100 µM,[18],86.9%
same,activity at 100 µM,[19],89.5%
same,activity at 100 µM,[20],94%
same,activity at 100 µM,[21],77.2%
C=CCN(C(=O)OCc1ccc([N+](=O)[O-])cc1)C1CCN(CC[C@](C)(CN(C)S(=O)(=O)c2ccccc2)c2ccccc2)CC1 [MMV1782214],activity at 25 µM,[14],69.4%
same,activity at 25 µM,[15],79.7%
same,activity at 25 µM,[16],66.7%
same,activity at 25 µM,[17],61.9%
same,activity at 100 µM,[18],62.1%
same,activity at 100 µM,[19],55.9%
same,activity at 100 µM,[20],76.9%
same,activity at 100 µM,[21],53.4%
CC(C)c1ccc(COc2cccc(-c3cc([S+](C)[O-])c(C#N)c(=O)[nH]3)c2)cc1 (stereo not shown) [MMV1582497],activity at 25 µM,[9],61.3%
same,activity at 25 µM,[2],65%
same,activity at 25 µM,[3],60.9%
same,activity at 25 µM,[4],58.1%
same,activity at 100 µM,[10],40.1%
same,activity at 100 µM,[11],1.56%
same,activity at 100 µM,[12],53.5%
same,activity at 100 µM,[13],65.4%
